Test systems include MOLT-4 leukemia; HCC-2998 colon; SW-620 colon; MDA-MB-231 breast; RXF 393 renal; NCI/ADR-RES ovarian; UACC-62 melanoma; 786-0 renal; SNB-75 CNS; SR leukemia; MDA-MB-435; SF-268 CNS; OVCAR-8 ovarian; UO-31 renal; HOP-92 NSCLC; SF-295 CNS; OVCAR-4 ovarian; RPMI-8226 leukemia; HS 578T breast; NCI-H460 lung.
What all share (assay): growth of human tumour cells (NCI), 48 h

The structures appear in SMILES notation.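 Assay format: 96-well plates, 48-hour exposure. TGI: total growth inhibition.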

Consider `c1ccc2c(c1)ncn2C1CCCCO1` (stereo not drawn), for which the TGI in the assay with MOLT-4 leukemia, with HCC-2998 colon, in the assay with SW-620 colon, with MDA-MB-231 breast, in the assay with RXF 393 renal and with NCI/ADR-RES ovarian was more than 100 µM in each case. Besides, the TGI in the assay with UACC-62 melanoma, in the assay on 786-0 renal, in the assay on SNB-75 CNS, in the assay on SR leukemia, in the assay with MDA-MB-435 and with SF-268 CNS was more than 100 µM in each case. Besides, the TGI in the assay on OVCAR-8 ovarian, in the assay with UO-31 renal, in the assay with HOP-92 NSCLC, in the assay on SF-295 CNS, in the assay on OVCAR-4 ovarian and with RPMI-8226 leukemia was more than 100 µM in each case. In the assay on HS 578T breast, this compound gave a TGI of more than 100 µM.

Turning to `CCCCCCCCCCCCOP(=O)(O)OCC(N)C(=O)O` (stereo not drawn), the TGI with MOLT-4 leukemia is 36.2 µM; in the assay on HCC-2998 colon it was more than 100 µM; with SW-620 colon, more than 100 µM; in the assay with MDA-MB-231 breast it was 58 µM; in the assay on RXF 393 renal, more than 100 µM; in the assay with NCI/ADR-RES ovarian, more than 100 µM. In addition, the TGI was more than 100 µM in the assay with 786-0 renal; 51.9 µM in the assay on SNB-75 CNS; 90 µM in the assay on SR leukemia; 36.8 µM in the assay on MDA-MB-435; more than 100 µM in the assay with SF-268 CNS; more than 100 µM in the assay on OVCAR-8 ovarian. Also, the TGI with UO-31 renal is 28.9 µM; in the assay on HOP-92 NSCLC it was 43.3 µM; with SF-295 CNS, 41.7 µM; with OVCAR-4 ovarian, more than 100 µM; in the assay on RPMI-8226 leukemia it was 68.5 µM; in the assay on NCI-H460 lung, 43.2 µM. This compound showed a TGI with HS 578T breast of 33.3 µM.

With `Nc1[nH]c(=S)nc2snnc12`, the TGI with MOLT-4 leukemia, with HCC-2998 colon, in the assay on SW-620 colon, in the assay with MDA-MB-231 breast, in the assay with RXF 393 renal and with NCI/ADR-RES ovarian was more than 100 µM each time. The TGI with UACC-62 melanoma, with 786-0 renal, in the assay with SNB-75 CNS, with SR leukemia, with MDA-MB-435 and with SF-268 CNS was more than 100 µM in each case. For the same compound, the TGI in the assay with OVCAR-8 ovarian, in the assay on UO-31 renal, with HOP-92 NSCLC, in the assay on SF-295 CNS, in the assay on RPMI-8226 leukemia and in the assay on NCI-H460 lung was more than 100 µM throughout. This compound also returned a TGI in the assay on HS 578T breast of more than 100 µM.

With `CCOC(=O)NC(NC1=NCCS1)(C(=O)OCC)C(F)(F)F` (stereo not drawn), the TGI with MOLT-4 leukemia, in the assay with HCC-2998 colon, in the assay with SW-620 colon, with MDA-MB-231 breast, in the assay with RXF 393 renal and in the assay with NCI/ADR-RES ovarian was more than 100 µM throughout. Further, the TGI with 786-0 renal, with SNB-75 CNS, in the assay on SR leukemia, in the assay on MDA-MB-435, in the assay with SF-268 CNS and with OVCAR-8 ovarian was more than 100 µM in each case. Moreover, the TGI in the assay on UO-31 renal, in the assay with HOP-92 NSCLC, in the assay on SF-295 CNS, in the assay on OVCAR-4 ovarian, in the assay with RPMI-8226 leukemia and in the assay with NCI-H460 lung was more than 100 µM each time. The compound also had a TGI with HS 578T breast of more than 100 µM.

Regarding `Cn1c2ccccc2c2c(=O)[nH]c(=O)[nH]c21`, the TGI in the assay on MOLT-4 leukemia, with HCC-2998 colon, with SW-620 colon, in the assay on MDA-MB-231 breast, in the assay on RXF 393 renal and in the assay with NCI/ADR-RES ovarian was more than 100 µM in each case. In addition, the TGI in the assay with UACC-62 melanoma, in the assay on 786-0 renal, with SNB-75 CNS, in the assay on SR leukemia, with MDA-MB-435 and in the assay on SF-268 CNS was more than 100 µM each time. Further, the TGI with OVCAR-8 ovarian, in the assay on UO-31 renal, in the assay on HOP-92 NSCLC, in the assay with SF-295 CNS, in the assay on RPMI-8226 leukemia and in the assay with HS 578T breast was more than 100 µM throughout.

For `CC1OC2(CC(OCc3ccccc3)C1OCc1ccccc1)OCCO2` (stereo not drawn), the TGI with MOLT-4 leukemia was 75.2 µM; in the assay on HCC-2998 colon it was more than 100 µM; in the assay on SW-620 colon, more than 100 µM; in the assay with MDA-MB-231 breast, more than 100 µM; in the assay with RXF 393 renal, 74.4 µM; with NCI/ADR-RES ovarian, more than 100 µM. Further, the TGI in the assay with UACC-62 melanoma, in the assay on 786-0 renal, in the assay with SR leukemia, with MDA-MB-435, in the assay on SF-268 CNS and in the assay on OVCAR-8 ovarian was more than 100 µM throughout. The TGI in the assay with UO-31 renal, in the assay on HOP-92 NSCLC, in the assay on SF-295 CNS, with OVCAR-4 ovarian, with RPMI-8226 leukemia and in the assay with NCI-H460 lung was more than 100 µM in each case. The compound also came in with a TGI in the assay on HS 578T breast of more than 100 µM.

For the compound `O=C1/C(=C/c2ccccc2O)N=C(c2ccccc2)N1c1nc2ccccc2s1`, the TGI with MOLT-4 leukemia was 60.7 µM; in the assay on HCC-2998 colon it was 35.4 µM; with SW-620 colon it was more than 100 µM; in the assay on MDA-MB-231 breast, 95.1 µM; in the assay on RXF 393 renal it was more than 100 µM; in the assay on NCI/ADR-RES ovarian, 52.1 µM. Besides, the TGI in the assay with 786-0 renal was 53.8 µM; in the assay on SNB-75 CNS, 98.2 µM; in the assay on SR leukemia it was 7.19 µM; in the assay on MDA-MB-435, more than 100 µM; with SF-268 CNS, 77.7 µM; in the assay with OVCAR-8 ovarian, 72.6 µM. In addition, the TGI was more than 100 µM in the assay with UO-31 renal; more than 100 µM in the assay on HOP-92 NSCLC; 87.1 µM in the assay with SF-295 CNS; more than 100 µM in the assay with OVCAR-4 ovarian; 49.3 µM in the assay on RPMI-8226 leukemia; 56.4 µM in the assay with NCI-H460 lung. The compound also showed a TGI with HS 578T breast of 58.4 µM.

Turning to `CCOC(=O)C(Cl)(NC(=O)c1c(F)c(F)c(F)c(F)c1F)C(F)(F)F` (stereo not drawn), the TGI in the assay on MOLT-4 leukemia, in the assay on HCC-2998 colon, with SW-620 colon, in the assay with MDA-MB-231 breast, in the assay on RXF 393 renal and in the assay on NCI/ADR-RES ovarian was more than 100 µM throughout. The TGI in the assay with UACC-62 melanoma, with 786-0 renal, with SNB-75 CNS, in the assay with SR leukemia, with MDA-MB-435 and with SF-268 CNS was more than 100 µM in each case. For the same compound, the TGI is more than 100 µM with OVCAR-8 ovarian; more than 100 µM in the assay on UO-31 renal; 75.3 µM with HOP-92 NSCLC; more than 100 µM with SF-295 CNS; more than 100 µM in the assay with OVCAR-4 ovarian; more than 100 µM with RPMI-8226 leukemia. This compound had a TGI in the assay on HS 578T breast of more than 100 µM.

As to `COc1ccc(/C=C2\N=C(c3ccccc3)N(N=C3NC(=O)CC(=O)N3)C2=O)cc1`, the TGI with MOLT-4 leukemia, in the assay with HCC-2998 colon, with SW-620 colon, in the assay on MDA-MB-231 breast, in the assay with RXF 393 renal and with NCI/ADR-RES ovarian was more than 100 µM in each case. The TGI in the assay with UACC-62 melanoma, in the assay on 786-0 renal, in the assay with SNB-75 CNS, in the assay on SR leukemia, with MDA-MB-435 and in the assay with SF-268 CNS was more than 100 µM each time. The TGI in the assay on OVCAR-8 ovarian, in the assay with UO-31 renal, in the assay with HOP-92 NSCLC, in the assay on OVCAR-4 ovarian, with RPMI-8226 leukemia and in the assay on NCI-H460 lung was more than 100 µM each time. Further, in the assay on HS 578T breast, the TGI was more than 100 µM.

For the compound `O=C(/C=C/c1ccc(/C=C/C(=O)c2ccc(O)cc2)cc1)c1ccc(O)cc1`, the TGI in the assay with MOLT-4 leukemia, in the assay with HCC-2998 colon, in the assay with SW-620 colon, in the assay on MDA-MB-231 breast, in the assay on RXF 393 renal and with NCI/ADR-RES ovarian was more than 100 µM throughout. Besides, the TGI in the assay on UACC-62 melanoma, in the assay with 786-0 renal, in the assay on SNB-75 CNS, in the assay on SR leukemia, with MDA-MB-435 and in the assay on SF-268 CNS was more than 100 µM throughout. For the same compound, the TGI with OVCAR-8 ovarian, in the assay on UO-31 renal, in the assay with HOP-92 NSCLC, in the assay on SF-295 CNS, in the assay with RPMI-8226 leukemia and with NCI-H460 lung was more than 100 µM each time. Also, the TGI with HS 578T breast was more than 100 µM.

Take `O=c1oc2cc(O)ccc2c(O)c1C(c1cccnc1)c1c(O)c2ccc(O)cc2oc1=O`: the TGI with MOLT-4 leukemia, with HCC-2998 colon, in the assay with SW-620 colon, with MDA-MB-231 breast, with RXF 393 renal and in the assay on NCI/ADR-RES ovarian was more than 100 µM each time. The TGI with UACC-62 melanoma, in the assay on 786-0 renal, in the assay on SNB-75 CNS, in the assay with SR leukemia, in the assay with MDA-MB-435 and in the assay on SF-268 CNS was more than 100 µM each time. Besides, the TGI with OVCAR-8 ovarian, in the assay on UO-31 renal, in the assay on HOP-92 NSCLC, in the assay with SF-295 CNS, in the assay on RPMI-8226 leukemia and with NCI-H460 lung was more than 100 µM throughout. Also, the TGI in the assay with HS 578T breast is more than 100 µM.
